{
  "source": "patent US10201523B2",
  "about": "“Use of wilforlide A for overcoming chemotherapy resistance” (WESTERN UNIVERSITY OF HEALTH SCIENCES, priority 2013, dated 2019)",
  "key": {"[1]": {"system": "K562", "test": "SRB cell viability assay, daunorubicin IC50", "assay_type": "cell-based", "details": "Homo sapiens, 72 h, read-out: Drug IC50 no pre-Tx"}, "[2]": {"system": "K562/Dox", "test": "SRB cell viability assay, daunorubicin with/without wilforlide A pretreatment", "assay_type": "cell-based", "details": "for viability at 0.001 µM / viability at 0.1 µM / viability at 0.333 µM / viability at 1 µM / viability at 3.33 µM / viability at 10 µM / viability at 33.3 µM / viability at 100 µM / IC50: Homo sapiens; for A at 565 nm: background = 0.043", "source_text": "Wilforlide A sensitizes the daunorubicin-resistant myelogenous leukemia line K562/Dox, to daunorubicin. […] FIG. 5 summarizes the data of Tables 20 and 21 in a graphical format."}, "[3]": {"details": "K562/Dox, no wilforlide A pre-Tx, daunorubicin 0.001 μM 72 h"}, "[4]": {"details": "K562/Dox, no wilforlide A pre-Tx, daunorubicin 0.333 μM 72 h"}, "[5]": {"details": "K562/Dox, no wilforlide A pre-Tx, daunorubicin 1 μM 72 h"}, "[6]": {"details": "K562/Dox, no wilforlide A pre-Tx, daunorubicin 3.33 μM 72 h"}, "[7]": {"details": "K562/Dox, no wilforlide A pre-Tx, daunorubicin 10 μM 72 h"}, "[8]": {"details": "K562/Dox, no wilforlide A pre-Tx, daunorubicin 33.3 μM 72 h"}, "[9]": {"details": "K562/Dox, no wilforlide A pre-Tx, daunorubicin 100 μM 72 h"}, "[10]": {"details": "K562/Dox, wilforlide A 2.5 μg/ml pre-Tx, daunorubicin 0.001 μM 72 h"}, "[11]": {"details": "K562/Dox, wilforlide A 2.5 μg/ml pre-Tx, daunorubicin 0.333 μM 72 h"}, "[12]": {"details": "K562/Dox, wilforlide A 2.5 μg/ml pre-Tx, daunorubicin 1 μM 72 h"}, "[13]": {"details": "K562/Dox, wilforlide A 2.5 μg/ml pre-Tx, daunorubicin 3.33 μM 72 h"}, "[14]": {"details": "K562/Dox, wilforlide A 2.5 μg/ml pre-Tx, daunorubicin 10 μM 72 h"}, "[15]": {"details": "K562/Dox, wilforlide A 2.5 μg/ml pre-Tx, daunorubicin 33.3 μM 72 h"}, "[16]": {"details": "K562/Dox, wilforlide A 2.5 μg/ml pre-Tx, daunorubicin 100 μM 72 h"}},
  "note": "Several values for one entry are separate records, joined by “and”; a condition that tells them apart may be missing. Identical values can stand only once. Like-named read-outs stand apart in the source and are kept apart here.",
  "data": [
    {"molecule": "COc1cccc2c1C(=O)c1c(O)c3c(c(O)c1C2=O)C[C@@](O)(C(C)=O)C[C@@H]3O[C@H]1C[C@H](N)[C@H](O)[C@H](C)O1", "note": "[daunorubicin]", "values": [
      {"measurement": "IC50", "setting": "[1]", "value": 1.05, "unit": "µM"},
      {"measurement": "viability at 0.001 µM", "setting": "[2]; K562, 72 h, K562/Dox, no wilforlide A pre-Tx, daunorubicin 0.001 μM 72 h", "value": 100, "unit": "%"},
      {"measurement": "viability at 0.1 µM", "setting": "[2]; K562, 72 h, K562/Dox, no wilforlide A pre-Tx, daunorubicin 0.1 μM 72 h", "value": 58.1, "unit": "%"},
      {"measurement": "viability at 0.333 µM", "setting": "[2]; K562, 72 h, K562/Dox, no wilforlide A pre-Tx, daunorubicin 0.333 μM 72 h", "value": 102, "unit": "%"},
      {"measurement": "viability at 1 µM", "setting": "[2]; K562, 72 h, K562/Dox, no wilforlide A pre-Tx, daunorubicin 1 μM 72 h", "value": 99.6, "unit": "%"},
      {"measurement": "viability at 3.33 µM", "setting": "[2]; K562, 72 h, K562/Dox, no wilforlide A pre-Tx, daunorubicin 3.33 μM 72 h", "value": 95.9, "unit": "%"},
      {"measurement": "viability at 10 µM", "setting": "[2]; K562, 72 h, K562/Dox, no wilforlide A pre-Tx, daunorubicin 10 μM 72 h", "value": 92.3, "unit": "%"},
      {"measurement": "viability at 33.3 µM", "setting": "[2]; K562, 72 h, K562/Dox, no wilforlide A pre-Tx, daunorubicin 33.3 μM 72 h", "value": 53.8, "unit": "%"},
      {"measurement": "viability at 100 µM", "setting": "[2]; K562, 72 h, K562/Dox, no wilforlide A pre-Tx, daunorubicin 100 μM 72 h", "value": 22.4, "unit": "%"},
      {"measurement": "viability at 0.001 µM", "setting": "[2]; K562, 72 h, K562/Dox, wilforlide A 2.5 μg/ml pre-Tx, daunorubicin 0.001 μM 72 h", "value": 100, "unit": "%"},
      {"measurement": "viability at 0.1 µM", "setting": "[2]; K562, 72 h, K562/Dox, wilforlide A 2.5 μg/ml pre-Tx, daunorubicin 0.1 μM 72 h", "value": 54.1, "unit": "%"},
      {"measurement": "viability at 0.333 µM", "setting": "[2]; K562, 72 h, K562/Dox, wilforlide A 2.5 μg/ml pre-Tx, daunorubicin 0.333 μM 72 h", "value": 104, "unit": "%"},
      {"measurement": "viability at 1 µM", "setting": "[2]; K562, 72 h, K562/Dox, wilforlide A 2.5 μg/ml pre-Tx, daunorubicin 1 μM 72 h", "value": 99, "unit": "%"},
      {"measurement": "viability at 3.33 µM", "setting": "[2]; K562, 72 h, K562/Dox, wilforlide A 2.5 μg/ml pre-Tx, daunorubicin 3.33 μM 72 h", "value": 95.4, "unit": "%"},
      {"measurement": "viability at 10 µM", "setting": "[2]; K562, 72 h, K562/Dox, wilforlide A 2.5 μg/ml pre-Tx, daunorubicin 10 μM 72 h", "value": 78.6, "unit": "%"},
      {"measurement": "viability at 33.3 µM", "setting": "[2]; K562, 72 h, K562/Dox, wilforlide A 2.5 μg/ml pre-Tx, daunorubicin 33.3 μM 72 h", "value": 33.7, "unit": "%"},
      {"measurement": "viability at 100 µM", "setting": "[2]; K562, 72 h, K562/Dox, wilforlide A 2.5 μg/ml pre-Tx, daunorubicin 100 μM 72 h", "value": 29.6, "unit": "%"},
      {"measurement": "IC50", "setting": "[2]; K562, 72 h, read-out: Drug IC50 no pre-Tx", "value": 30.7, "unit": "µM"},
      {"measurement": "IC50", "setting": "[2]; K562, read-out: Drug IC50 after wilforlide A pre-Tx", "value": 13.6, "unit": "µM"},
      {"measurement": "mean A", "setting": "[2]; [3]", "value": 2.893},
      {"measurement": "A at 565 nm", "setting": "[2]; [3]", "value": "2.848 and 2.923 and 2.909"},
      {"measurement": "mean A", "setting": "[2]; K562/Dox, no wilforlide A pre-Tx, daunorubicin 0.1 μM 72 h", "value": 1.682},
      {"measurement": "mean A", "setting": "[2]; [4]", "value": 2.951},
      {"measurement": "A at 565 nm", "setting": "[2]; [4]", "value": "2.943 and 2.956 and 2.955"},
      {"measurement": "mean A", "setting": "[2]; [5]", "value": 2.880},
      {"measurement": "A at 565 nm", "setting": "[2]; [5]", "value": "2.892 and 2.878 and 2.872"},
      {"measurement": "mean A", "setting": "[2]; [6]", "value": 2.775},
      {"measurement": "A at 565 nm", "setting": "[2]; [6]", "value": "2.805 and 2.780 and 2.741"},
      {"measurement": "mean A", "setting": "[2]; [7]", "value": 2.670},
      {"measurement": "A at 565 nm", "setting": "[2]; [7]", "value": "2.678 and 2.720 and 2.613"},
      {"measurement": "mean A", "setting": "[2]; [8]", "value": 1.556},
      {"measurement": "A at 565 nm", "setting": "[2]; [8]", "value": "1.625 and 1.639 and 1.406"},
      {"measurement": "mean A", "setting": "[2]; [9]", "value": 0.647},
      {"measurement": "A at 565 nm", "setting": "[2]; [9]", "value": "0.757 and 0.657 and 0.528"},
      {"measurement": "mean A", "setting": "[2]; [10]", "value": 2.815},
      {"measurement": "A at 565 nm", "setting": "[2]; [10]", "value": "2.797 and 2.838 and 2.810"},
      {"measurement": "mean A", "setting": "[2]; K562/Dox, wilforlide A 2.5 μg/ml pre-Tx, daunorubicin 0.1 μM 72 h", "value": 1.522},
      {"measurement": "mean A", "setting": "[2]; [11]", "value": 2.938},
      {"measurement": "A at 565 nm", "setting": "[2]; [11]", "value": "2.838 and 2.951 and 3.025"},
      {"measurement": "mean A", "setting": "[2]; [12]", "value": 2.786},
      {"measurement": "A at 565 nm", "setting": "[2]; [12]", "value": "2.777 and 2.784 and 2.799"},
      {"measurement": "mean A", "setting": "[2]; [13]", "value": 2.684},
      {"measurement": "A at 565 nm", "setting": "[2]; [13]", "value": "2.657 and 2.681 and 2.715"},
      {"measurement": "mean A", "setting": "[2]; [14]", "value": 2.213},
      {"measurement": "A at 565 nm", "setting": "[2]; [14]", "value": "2.200 and 2.392 and 2.049"},
      {"measurement": "mean A", "setting": "[2]; [15]", "value": 0.947},
      {"measurement": "A at 565 nm", "setting": "[2]; [15]", "value": "1.016 and 0.901 and 0.926"},
      {"measurement": "mean A", "setting": "[2]; [16]", "value": 0.832},
      {"measurement": "A at 565 nm", "setting": "[2]; [16]", "value": "0.843 and 0.815 and 0.840"},
      {"measurement": "CE", "setting": "[2]; chemosensitization effect, K562/Dox, wilforlide A 2.5 μg/ml pre-Tx", "value": 2.27}
    ]}
  ]
}
